Experiments:
Format in all cases: functional
[1] = Growth inhibition of human NCI-ADR-RES cells assessed as cell growth at 3X10'-5 M after 48 hrs by sulforhodamine B assay; conditions: read-out: Activity
[2] = test system: MOLT-4; test: Growth inhibition of human MOLT4 cells assessed as cell growth at 3X10'-8 M after 48 hrs by sulforhodamine B assay; conditions: MOLT-4, 48 h, read-out: Activity
[3] = test system: KM12; test: Growth inhibition of human KM12 cells assessed as cell growth at 3X10'-5 M after 48 hrs by sulforhodamine B assay; conditions: KM12, 48 h, read-out: Activity
[4] = test system: SNB-19; test: Growth inhibition of human SNB19 cells assessed as cell growth at 3X10'-6 M after 48 hrs by sulforhodamine B assay; conditions: SNB-19, 48 h, read-out: Activity
[5] = test system: TK-10; test: Growth inhibition of human TK10 cells assessed as cell growth at 3X10'-6 M after 48 hrs by sulforhodamine B assay; conditions: TK-10, 48 h, read-out: Activity
[6] = test system: PC-3; test: Growth inhibition of human PC3 cells assessed as cell growth at 3X10'-6 M after 48 hrs by sulforhodamine B assay; conditions: PC-3, 48 h, read-out: Activity
[7] = test system: MCF7; test: Growth inhibition of human MCF7 cells assessed as cell growth at 3X10'-5 M after 48 hrs by sulforhodamine B assay; conditions: MCF7, 48 h, read-out: Activity
[8] = test system: LOX IMVI; test: Growth inhibition of human LOXIMVI cells assessed as cell growth at 3X10'-8 M after 48 hrs by sulforhodamine B assay; conditions: read-out: Activity
[9] = test system: ACHN; test: Growth inhibition of human ACHN cells assessed as cell growth at 3X10'-5 M after 48 hrs by sulforhodamine B assay; conditions: read-out: Activity
[10] = test system: CAKI-1; test: Growth inhibition of human CAKI-1 cells assessed as cell growth at 3X10'-5 M after 48 hrs by sulforhodamine B assay; conditions: CAKI-1, 48 h, read-out: Activity
[11] = test system: NCI-H522; test: Growth inhibition of human NCI-H522 cells assessed as cell growth at 3X10'-7 M after 48 hrs by sulforhodamine B assay; conditions: NCI-H522, 48 h, read-out: Activity
[12] = test system: NCI-H460; test: Growth inhibition of human NCI-H460 cells assessed as cell growth at 3X10'-6 M after 48 hrs by sulforhodamine B assay; conditions: NCI-H460, 48 h, read-out: Activity
[13] = test system: SNB-75; test: Growth inhibition of human SNB75 cells assessed as cell growth at 3X10'-5 M after 48 hrs by sulforhodamine B assay; conditions: SNB-75, 48 h, read-out: Activity
[14] = test system: MDA-MB-435; test: Growth inhibition of human MDA-MB-435 cells assessed as cell growth at 3X10'-5 M after 48 hrs by sulforhodamine B assay; conditions: MDA-MB-435, 48 h, read-out: Activity
[15] = test system: MCF7; test: Growth inhibition of human MCF7 cells assessed as cell growth at 3X10'-7 M after 48 hrs by sulforhodamine B assay; conditions: MCF7, 48 h, read-out: Activity
[16] = test system: CAKI-1; test: Growth inhibition of human CAKI-1 cells assessed as cell growth at 3X10'-7 M after 48 hrs by sulforhodamine B assay; conditions: CAKI-1, 48 h, read-out: Activity
[17] = test system: SK-MEL-2; test: Growth inhibition of human SK-MEL-2 cells assessed as cell growth at 3X10'-5 M after 48 hrs by sulforhodamine B assay; conditions: SK-MEL-2, 48 h, read-out: Activity
[18] = test system: NCI-H226; test: Growth inhibition of human NCI-H226 cells assessed as cell growth at 3X10'-6 M after 48 hrs by sulforhodamine B assay; conditions: NCI-H226, 48 h, read-out: Activity
[19] = test system: OVCAR-3; test: Growth inhibition of human OVCAR3 cells assessed as cell growth at 3X10'-6 M after 48 hrs by sulforhodamine B assay; conditions: OVCAR-3, 48 h, read-out: Activity
[20] = test system: HL-60(TB); test: Growth inhibition of human HL-60(TB) cells assessed as cell growth at 3X10'-6 M after 48 hrs by sulforhodamine B assay; conditions: HL-60, 48 h, read-out: Activity
[21] = test system: M14; test: Growth inhibition of human M14 cells assessed as cell growth at 3X10'-5 M after 48 hrs by sulforhodamine B assay; conditions: M14, 48 h, read-out: Activity
[22] = test system: SR; test: Growth inhibition of human SR cells assessed as cell growth at 3X10'-5 M after 48 hrs by sulforhodamine B assay; conditions: read-out: Activity
[23] = test system: SK-OV-3; test: Growth inhibition of human SKOV3 cells assessed as cell growth at 3X10'-7 M after 48 hrs by sulforhodamine B assay; conditions: SK-OV-3, 48 h, read-out: Activity
[24] = test system: SW-620; test: Growth inhibition of human SW620 cells assessed as cell growth at 3X10'-9 M after 48 hrs by sulforhodamine B assay; conditions: SW-620, 48 h, read-out: Activity
[25] = test system: HCT-116; test: Growth inhibition of human HCT116 cells assessed as cell growth at 3X10'-9 M after 48 hrs by sulforhodamine B assay; conditions: HCT-116, 48 h, read-out: Activity
[26] = test system: A498; test: Growth inhibition of human A498 cells assessed as cell growth at 3X10'-8 M after 48 hrs by sulforhodamine B assay; conditions: A498, 48 h, read-out: Activity
[27] = test system: T47D; test: Growth inhibition of human T47D cells assessed as cell growth at 3X10'-5 M after 48 hrs by sulforhodamine B assay; conditions: read-out: Activity
[28] = test system: SNB-19; test: Growth inhibition of human SNB19 cells assessed as cell growth at 3X10'-8 M after 48 hrs by sulforhodamine B assay; conditions: SNB-19, 48 h, read-out: Activity
[29] = test system: T47D; test: Growth inhibition of human T47D cells assessed as cell growth at 3X10'-6 M after 48 hrs by sulforhodamine B assay; conditions: read-out: Activity
[30] = test system: OVCAR-8; test: Growth inhibition of human OVCAR8 cells assessed as cell growth at 3X10'-5 M after 48 hrs by sulforhodamine B assay; conditions: OVCAR-8, 48 h, read-out: Activity
[31] = Growth inhibition of human NCI-ADR-RES cells assessed as cell growth at 3X10'-7 M after 48 hrs by sulforhodamine B assay; conditions: read-out: Activity
[32] = test system: LOX IMVI; test: Growth inhibition of human LOXIMVI cells assessed as cell growth at 3X10'-6 M after 48 hrs by sulforhodamine B assay; conditions: read-out: Activity
[33] = test system: UO-31; test: Growth inhibition of human UO31 cells assessed as cell growth at 3X10'-6 M after 48 hrs by sulforhodamine B assay; conditions: UO-31, 48 h, read-out: Activity
[34] = test system: TK-10; test: Growth inhibition of human TK10 cells assessed as cell growth at 3X10'-9 M after 48 hrs by sulforhodamine B assay; conditions: TK-10, 48 h, read-out: Activity

O=C(Nc1cccc(-n2cc(-c3ccncc3)c(-c3ccc(Cl)c(O)c3)n2)c1)Nc1ccc(Cl)c(Cl)c1 gave a growth at 30 µM [1] of 6%, a growth at 0.03 µM [2] of 99% and a growth at 30 µM [3] of -56%. It also gave a growth at 3 µM [4] of 23%, a growth at 3 µM [5] of 31% and a growth at 3 µM [6] of 6%. It also gave a growth at 30 µM [7] of 2%, a growth at 0.03 µM [8] of 91% and a growth at 30 µM [9] of 1%. It also gave a growth at 30 µM [10] of -9%, a growth at 0.3 µM [11] of 97% and a growth at 3 µM [12] of 2%. The growth at 30 µM [13] was -15%, the growth at 30 µM [14] was -38% and the growth at 0.3 µM [15] was 94%. It also gave a growth at 0.3 µM [16] of 88%, a growth at 30 µM [17] of -50% and a growth at 3 µM [18] of 28%. The growth at 3 µM [19] was -1%, the growth at 3 µM [20] was 16% and the growth at 30 µM [21] was -28%. It also gave a growth at 30 µM [22] of -5%, a growth at 0.3 µM [23] of 98% and a growth at 0.003 µM [24] of 100%. It also gave a growth at 0.003 µM [25] of 94%, a growth at 0.03 µM [26] of 95% and a growth at 30 µM [27] of -9%. The growth at 0.03 µM [28] was 98%, the growth at 3 µM [29] was 26% and the growth at 30 µM [30] was 7%. For the same compound, the growth at 0.3 µM [31] was 102%, the growth at 3 µM [32] was 3% and the growth at 3 µM [33] was 19%. The growth at 0.003 µM [34] was 96%.

For O=C(Nc1cccc(-n2cc(-c3ccncc3)c(-c3ccc(Cl)c(O)c3)n2)c1)Nc1cccc(C(F)(F)F)c1, the growth at 30 µM [1] was 7%, the growth at 0.03 µM [2] was 96% and the growth at 30 µM [3] was 1%. It also gave a growth at 3 µM [4] of 36%, a growth at 3 µM [5] of 37% and a growth at 3 µM [6] of 13%. The growth at 30 µM [7] was 2%, the growth at 0.03 µM [8] was 95% and the growth at 30 µM [9] was 7%. It also gave a growth at 30 µM [10] of 2%, a growth at 0.3 µM [11] of 98% and a growth at 3 µM [12] of 16%. For the same compound, the growth at 30 µM [13] was 1%, the growth at 30 µM [14] was -19% and the growth at 0.3 µM [15] was 89%. It also gave a growth at 0.3 µM [16] of 91%, a growth at 30 µM [17] of -32% and a growth at 3 µM [18] of 66%. It also gave a growth at 3 µM [19] of 10%, a growth at 3 µM [20] of 41% and a growth at 30 µM [21] of -20%. For the same compound, the growth at 30 µM [22] was -9%, the growth at 0.3 µM [23] was 105% and the growth at 0.003 µM [24] was 98%. The growth at 0.003 µM [25] was 96%, the growth at 0.03 µM [26] was 83% and the growth at 30 µM [27] was 7%. For the same compound, the growth at 0.03 µM [28] was 98%, the growth at 3 µM [29] was 44% and the growth at 30 µM [30] was 7%. The growth at 0.3 µM [31] was 98%, the growth at 3 µM [32] was 44% and the growth at 3 µM [33] was 37%. For the same compound, the growth at 0.003 µM [34] was 94%.

COc1cc(-c2nn(-c3cccc(NC(=O)Nc4ccc(Cl)c(C(F)(F)F)c4)c3)cc2-c2ccncc2)ccc1Cl showed a growth at 30 µM [1] of -5%, a growth at 0.03 µM [2] of 106% and a growth at 30 µM [3] of -79%. The growth at 3 µM [4] was 19%, the growth at 3 µM [5] was 25% and the growth at 3 µM [6] was -11%. It also gave a growth at 30 µM [7] of 2%, a growth at 0.03 µM [8] of 100% and a growth at 30 µM [9] of -4%. It also gave a growth at 30 µM [10] of -20%, a growth at 0.3 µM [11] of 100% and a growth at 3 µM [12] of 6%. For the same compound, the growth at 30 µM [13] was -24%, the growth at 30 µM [14] was -50% and the growth at 0.3 µM [15] was 87%. The growth at 0.3 µM [16] was 93%, the growth at 30 µM [17] was -64% and the growth at 3 µM [18] was 38%. The growth at 3 µM [19] was -14%, the growth at 3 µM [20] was 2% and the growth at 30 µM [21] was -66%. The growth at 30 µM [22] was -12%, the growth at 0.3 µM [23] was 103% and the growth at 0.003 µM [24] was 101%. The growth at 0.003 µM [25] was 102%, the growth at 0.03 µM [26] was 93% and the growth at 30 µM [27] was 8%. For the same compound, the growth at 0.03 µM [28] was 93%, the growth at 3 µM [29] was 18% and the growth at 30 µM [30] was -13%. It also gave a growth at 0.3 µM [31] of 98%, a growth at 3 µM [32] of 13% and a growth at 3 µM [33] of 3%. It also gave a growth at 0.003 µM [34] of 101%.
